Experimental findings from PubChem BioAssay AID504737 (National Center for Advancing Translational Sciences (NCATS), 2011) are described below.

In this data set the test system is Caco-2 permeability, B->A Papp, LC-MS/MS. In words: Inhibitors of Bloom's syndrome helicase: Caco-2 Permeability Profiling Assay. As to conditions: active compounds read high. From the text:
Survival of cells and the faithful propagation of the genome depend on elaborate mechanisms of detecting and repairing DNA damage. Treatment of advanced cancer relies on radiation therapy or chemotherapy, which kill cancer cells by causing extensive DNA damage. It is often found, that cancer cells develop resistance to therapy through enhanced activity of DNA repair functions; this has led to an increased interest in developing drugs that interfere with DNA repair, which could sensitize cancer cells to conventional therapy. Bloom syndrome helicase (BLM), is important in resolving abnormal DNA structures formed during replication or homologous recombination. Shutting down the expression of BLM leads to chromosomal instability and higher radiation sensitivity in cultured cells. This permeability assay predicts the in vivo absorption of the lead across the intestinal lining by using a Caco-2 cell line and measuring the lead's […]. […] NIH Chemical Genomics Center [NCGC] NIH Molecular Libraries Probe Production Centers Network [MLPCN] MLSCN Grant: MH087284 PI Name: Dr. Opher Gileadi, Structural Genomics Consortium, University of Oxford, UK
1. […] The T0, LY and T90, LY plates are read by FlexStation 3 at excitation of 485 nm and emission of 535 nm to determine LY permeability. […]

Molecules are shown by their SMILES.

With `O=C(Nc1ccc(F)c(C(F)(F)F)c1)Nc1nnc(-c2ccncc2)s1`, the permeability B->A Papp is 1 10^-6 cm/s.
